Source: US12697315B2, “Treatment for interstitial lung disease” (United Therapeutics Corporation, priority 2020, dated 2026)

What was measured:
[1] = tested on: patients with interstitial lung disease and pulmonary hypertension; assay: SpO2 by pulse oximetry around the 6-minute walk test, INCREASE; assay type: in vivo, human
Description: The 6-minute walk test was performed and laboratory data were obtained at baseline and at weeks 4, 8, 12, and 16, or at the time of early discontinuation of treprostinil or placebo. Each 6-minute walk test was performed 10 to 60 minutes after the most recent dose of active drug or placebo, which is the time of peak plasma treprostinil exposure. A trough test was performed at week 15 at least 4 hours after the participant received a dose of treprostinil or placebo and at least 24 hours before the week 16 test. Pulse oximetry was performed immediately before, during, and after each 6-minute walk test. Measurement of N-terminal pro-B-type natriuretic peptide (NT-proBNP) levels and pulmonary function tests were performed at baseline and at weeks 8 and 16 (or at early discontinuation) after the patients recovered from the 6-minute walk test. The St. George's Respiratory Questionnaire (SGRQ), a quality-of-life measure, was completed at baseline and week 16 or at the time of early discontinuation.

[2] = tested on: patients with interstitial lung disease and pulmonary hypertension; assay: Adverse events and serious adverse events, INCREASE; conditions: 16-week trial
Description: Safety assessments consisted of the development of AEs, vital signs, clinical laboratory parameters, ECG parameters, hospitalizations due to cardiopulmonary indications, exacerbations of underlying lung disease, and oxygenation.
Safety end points included adverse events, abnormal laboratory results, oxygenation as measured by pulse oximetry (Spo2) and supplemental oxygen requirement, changes in pulmonary function test results, hospitalization for a cardiopulmonary indication, and investigator-reported exacerbations of underlying lung disease, defined as acute, clinically significant respiratory deterioration characterized by evidence of new widespread alveolar abnormality.

## CCCCC[C@H](O)CC[C@@H]1[C@H]2Cc3cccc(OCC(=O)O)c3C[C@H]2C[C@H]1O [Inhaled treprostinil, treprostinil]
[1]; Week 16
  During Walk SpO2 (%), Change from Pre-walk, Median: −17.0%
  During Walk SpO2 (%), Value, Median: 77.0%
  Post-walk SpO2 (%), Change from Pre-walk, Median: −13.0%
  Post-walk SpO2 (%), Value, Median: 83.0%
  Pre-walk SpO2 (%), Value, Median: 95.0%
[1]; Week 16, n 123
  During Walk SpO2 (%), Change from Pre-walk, Mean (SD): −17.6 (7.01) %
  During Walk SpO2 (%), Value, Mean (SD): 76.8 (7.70) %
[1]; Week 16, n 128
  Post-walk SpO2 (%), Change from Pre-walk, Mean (SD): −12.4 (8.05) %
  Post-walk SpO2 (%), Value, Mean (SD): 82.1 (9.24) %
[1]; Week 16, n 130
  Pre-walk SpO2 (%), Value, Mean (SD): 94.5 (4.35) %
[1]; over the trial period
  treatment-related changes in pulse oximetry: no significant treatment-related changes
[2]
  patients with serious adverse events: patients (23.3%)
[2]; N = 163
  Adverse event: Cough: 71 (43.6) no. of patients (%)
  Adverse event: Diarrhea: 22 (13.5) no. of patients (%)
  Adverse event: Dizziness: 30 (18.4) no. of patients (%)
  Adverse event: Dyspnea: 41 (25.2) no. of patients (%)
  Adverse event: Fatigue: 23 (14.1) no. of patients (%)
  Adverse event: Headache: 45 (27.6) no. of patients (%)
  Adverse event: NT-proBNP increased: 9 (5.5) no. of patients (%)
  Adverse event: Nausea: 25 (15.3) no. of patients (%)
  Adverse event: Oropharyngeal pain: 18 (11.0) no. of patients (%)
  Adverse event: Throat irritation: 20 (12.3) no. of patients (%)
  Any Serious Event, number of patients: 38 patients
  Patients with ≥1 adverse event: 152 (93.3) no. (%)
  Patients with ≥1 serious adverse event: 38 (23.3) no. (%)
  Serious adverse event: Abdominal pain: 0 n
  Serious adverse event: Acute kidney injury: 0 n
  Serious adverse event: Acute myocardial infarction: 1 n
  Serious adverse event: Acute respiratory failure: 4 n
  Serious adverse event: Acute right ventricular failure: 1 n
  Serious adverse event: Arrhythmia: 1 n
  Serious adverse event: Aspiration: 0 n
  Serious adverse event: Atrial fibrillation: 0 n
  Serious adverse event: B-cell lymphoma: 1 n
  Serious adverse event: Bradycardia: 0 n
  Serious adverse event: Bronchitis: 2 n
  Serious adverse event: Bronchopulmonary aspergillosis: 1 n
  Serious adverse event: Cardiac arrest: 1 n
  Serious adverse event: Cardiac failure: 0 n
  Serious adverse event: Cardiac failure acute: 0 n
  Serious adverse event: Cardiac failure congestive: 1 n
  Serious adverse event: Cardiogenic shock: 0 n
  Serious adverse event: Cardiopulmonary failure: 1 n
  Serious adverse event: Cellulitis: 1 n
  Serious adverse event: Cerebral haemorrhage: 1 n
  Serious adverse event: Chest pain: 1 n
  Serious adverse event: Chronic obstructive pulmonary disease: 2 n
  Serious adverse event: Chronic respiratory failure: 2 n
  Serious adverse event: Chronic right ventricular failure: 0 n
  Serious adverse event: Coagulopathy: 0 n
  Serious adverse event: Combined pulmonary fibrosis and emphysema: 1 n
  Serious adverse event: Cor pulmonale: 1 n
  Serious adverse event: Cor pulmonale acute: 0 n
  Serious adverse event: Coronary artery disease: 0 n
  Serious adverse event: Death with unknown cause: 3 n
  Serious adverse event: Disease progression: 0 n
  Serious adverse event: Dyspnoea: 3 n
  Serious adverse event: Epistaxis: 0 n
  Serious adverse event: Fluid overload: 0 n
  Serious adverse event: Haematochezia: 0 n
  Serious adverse event: Haemoptysis: 1 n
  Serious adverse event: Hyperglycaemia: 1 n
  Serious adverse event: Hypertension: 0 n
  Serious adverse event: Hypervolaemia: 1 n
  Serious adverse event: Hypoxia: 1 n
  Serious adverse event: Idiopathic pulmonary fibrosis: 1 n
  Serious adverse event: Influenza: 1 n
  Serious adverse event: Interstitial lung disease: 3 n
  Serious adverse event: Left ventricular failure: 1 n
  Serious adverse event: Lumbar vertebral fracture: 0 n
  Serious adverse event: Metabolic encephalopathy: 0 n
  Serious adverse event: Pain: 0 n
  Serious adverse event: Pain in extremity: 1 n
  Serious adverse event: Pneumonia: 1 n
  Serious adverse event: Pneumonia influenzal: 0 n
  Serious adverse event: Pneumothorax: 1 n
  Serious adverse event: Post procedural infection: 0 n
  Serious adverse event: Presyncope: 0 n
  Serious adverse event: Pulmonary congestion: 0 n
  Serious adverse event: Pulmonary hypertension: 1 n
  Serious adverse event: Pulmonary oedema: 1 n
  Serious adverse event: Respiratory distress: 0 n
  Serious adverse event: Respiratory failure: 2 n
  Serious adverse event: Right ventricular failure: 1 n
  Serious adverse event: Scleroderma: 0 n
  Serious adverse event: Sepsis: 0 n
  Serious adverse event: Syncope: 1 n
  Serious adverse event: Tachycardia: 1 n
  Serious adverse event: Transplant dysfunction: 0 n
  Serious adverse event: Upper respiratory tract infection: 2 n
  Serious adverse event: Urosepsis: 0 n
  Total no. of adverse events: 890
  Total no. of adverse events leading to withdrawal of treprostinil or placebo: 47
  Total no. of serious adverse events: 53
[2]; listed as inhaled treprostinil
  patients with serious adverse events: 23.3%
